Measured values reported in patent US10350213B2 (AI Therapeutics, Inc., priority 2015, dated 2019).
Where two headings read alike, the source gives them in different places.

How the values were obtained:
[1] = Phase 1 dose-escalation (QD/BID) study in normal healthy volunteers; assay type: in vivo, human; settings: for Cmax: oral, human plasma, mean
H4 (Human neuroglioma) = assay: CellTiterGlo cell viability assay; assay type: cell-based
[2] = tested on: U-87 MG (Human neuroblastoma); assay: CellTiterGlo cell viability assay; assay type: cell-based
[3] = active Crohn's disease; Sands et al. 2010; cited from earlier work
[4] = tested on: H358 (Human lung carcinoma); assay: CellTiterGlo cell viability assay; assay type: cell-based; settings: NCI-H358
[5] = tested on: SW1088 (Human neuroblastoma); assay: CellTiterGlo cell viability assay; assay type: cell-based
[6] = tested on: synovial IL-12 and IL-23 expression; settings: patients with rheumatoid arthritis; Krauz et al. 2012; cited from earlier work
[7] = tested on: non-cancer (normal) cells; assay: Cell viability assay, non-cancer (normal) cells; assay type: cell-based
From the text: This is exemplified in FIG. 2A for the HCT116 colorectal carcinoma cells. […] And all NHL subtypes were sensitive in this assay, including mantle, follicular, Burkitt's, DLBCL-ABC, DLBCL-GCB, and double-hit DLBCL.

[8] = tested on: LnCap (Human prostate cancer); assay: CellTiterGlo cell viability assay; assay type: cell-based
[9] = tested on: A549 (Human lung carcinoma); assay: CellTiterGlo cell viability assay; assay type: cell-based
[10] = tested on: SW780 (Human Bladder carcinoma (GATOR−/−)); assay: CellTiterGlo cell viability assay; assay type: cell-based
[11] = tested on: AsPC1 (Human pancreatic cancer); assay: CellTiterGlo cell viability assay; assay type: cell-based
[12] = tested on: NCI-H1781 (Human bronchioalveolar); assay: CellTiterGlo cell viability assay; assay type: cell-based
[13] = tested on: PANC1 (Human pancreatic cancer); assay: CellTiterGlo cell viability assay; assay type: cell-based; settings: PANC-1
[14] = tested on: Jurkat (Human T-cell leukemia); assay: CellTiterGlo cell viability assay; assay type: cell-based
[15] = tested on: SUDHL-4 (Human Diffuse Large B Cell Lymphoma -GCB); assay: CellTiterGlo cell viability assay; assay type: cell-based
[16] = tested on: 122 human cancer cell lines representing 24 tumor types; assay: 3-day CellTiterGlo assay, cancer cell line panel; assay type: cell-based; settings: of 122 human cancer cell lines; sensitive if IC50 less than 500 nM; 3-day assay
From the text: (§1) 35 cell lines were identified as sensitive to apilimod-induced cytotoxicity in this assay. The apilimod-sensitive cells included cells derived from several different cancers including non-Hodgkin's lymphoma, Hodgkin's lymphoma, colorectal cancer, and lung cancer. The most sensitive of those tested were non-Hodgkin's Lymphoma (NHL) cell lines. […] The only NHL subtype not sensitive in this assay was follicular.

[17] = tested on: non-Hodgkin's Lymphoma (NHL) cell lines; assay: 3-day CellTiterGlo assay, NHL cell lines; assay type: cell-based, human; settings: sensitive if IC50 less than 500 nM; 3-day assay
From the text: as §1

[18] = tested on: DU145 (Human prostate cancer); assay: CellTiterGlo cell viability assay; assay type: cell-based; settings: DU-145
IL-12/IL-23 synthesis = settings: oral administration; patients with psoriasis; Wada et al. 2012; cited from earlier work
[19] = tested on: SUDHL-6 human DLBCL cancer xenograft; assay: Subcutaneous SUDHL-6 human DLBCL cancer xenograft model; assay type: in vivo, NOD-SCID mice
Description: The tumor cells were sub-cultured twice weekly and harvested during exponential growth for tumor inoculation. NOD-SCID mice were γ-irradiated 24 hrs before inoculation. Each mouse was inoculated subcutaneously in the right flank with SU-DHL-6 tumor cells (5×10^6) in 0.1 ml of PBS with Matrigel (1:1). The tumors were then grown to a mean size of approximately 80-120 mm^3 and the mice were then split into 5 groups and treated as detailed in the Table 5.
Tumor size was measured twice a week in two dimensions using a caliper, and the volume is expressed in mm^3 using the formula: V=0.5 a×b^2 where a and b are the long and short diameters of the tumor, respectively.
Each mouse was inoculated subcutaneously in the right flank with SU-DHL-6 tumor cells (5×10^6) in 0.1 ml of PBS with Matrigel (1:1). The tumors were then grown to a mean size of approximately 80-120 mm^3 and the mice were then split into 6 groups and treated as detailed in the Table 6.

[20] = tested on: 22RV1 (Human prostate cancer); assay: CellTiterGlo cell viability assay; assay type: cell-based
[21] = tested on: MiaPaCa-2 (Human pancreatic cancer); assay: CellTiterGlo cell viability assay; assay type: cell-based; settings: MIA PaCa-2

Structure (SMILES): Cc1cccc(/C=N/Nc2cc(N3CCOCC3)nc(OCCc3ccccn3)n2)c1 [apilimod]
- share of the 24 hr period with plasma concentrations above 50 ng/ml ([1]; 50 ng/ml equal to 125 nM, 105 mg BID): ~50%
- safety profile ([1]; 105 mg BID, humans): tolerable safety profile
- Cmax ([1]; Treatment E: 70 mg ×2, total 140 mg, read-out: PM Cmax): 110 ng/mL
- Cmax ([1]; human, plasma, po, 7 mg, Treatment A: 7 mg once, total 7 mg, read-out: AM Cmax): 10.8 ng/mL
- Cmax ([1]; human, plasma, po, 7 mg, Treatment B: 7 mg ×2, total 14 mg, read-out: AM Cmax): 12.7 ng/mL
- Cmax ([1]; human, plasma, po, 7 mg, Treatment B: 7 mg ×2, total 14 mg, read-out: PM Cmax): 8.18 ng/mL
- Cmax ([1]; human, plasma, po, 14 mg, Treatment C: 14 mg ×2, total 28 mg, read-out: AM Cmax): 18.2 ng/mL
- Cmax ([1]; human, plasma, po, 14 mg, Treatment C: 14 mg ×2, total 28 mg, read-out: PM Cmax): 10.7 ng/mL
- Cmax ([1]; human, plasma, po, 35 mg, Treatment D: 35 mg ×2, total 70 mg, read-out: AM Cmax): 71.8 ng/mL
- Cmax ([1]; human, plasma, po, 35 mg, Treatment D: 35 mg ×2, total 70 mg, read-out: PM Cmax): 63 ng/mL
- Cmax ([1]; human, plasma, po, 70 mg, Treatment E: 70 mg ×2, total 140 mg, read-out: AM Cmax): 145 ng/mL
- Cmax ([1]; human, plasma, po, 105 mg, Treatment F: 105 mg ×2, total 210 mg, read-out: AM Cmax): 192 ng/mL
- Cmax ([1]; human, plasma, po, 105 mg, Treatment F: 105 mg ×2, total 210 mg, read-out: PM Cmax): 149 ng/mL
- IC50 (H4 (Human neuroglioma)): 250 nM
- IC50 [2]: > 10000 nM
- efficacy over placebo [3]: did not demonstrate efficacy over placebo
- tolerability [3]: well tolerated
- IC50 [4]: > 2000 nM
- IC50 [5]: > 10000 nM
- effect on synovial IL-12 and IL-23 expression [6]: failed to alter synovial IL-12 and IL-23 expression
- IC50 [7]: 15800 nM
- IC50 [8]: 3000 nM
- IC50 [9]: 110 nM
- IC50 [10]: 1000 nM
- IC50 [11]: > 2000 nM
- IC50 [12]: > 20000 nM
- IC50 [13]: > 2000 nM
- IC50 [14]: 200 nM
- IC50 ([15]; Homo sapiens, 72 h, SU-DHL-4, three-day assay, read-out: IC50 (nM) SU-DHL-4): 23 nM
- IC50 ([15]; Homo sapiens, SU-DHL-4, 72 h, SUDHL-4, 3-day CellTiterGlo assay, read-out: IC50): 50 nM
- IC50 ([15]; SU-DHL-4, SUDHL-4, Human DLBCL-GCB, read-out: IC50): 25 nM
- number of cell lines sensitive to apilimod-induced cytotoxicity [16]: 35
- share of NHL cell lines sensitive to apilimod [17]: over 50%
- IC50 [18]: > 2000 nM
- immunomodulatory activity (IL-12/IL-23 synthesis): showed immunomodulatory activity
- tumor growth inhibition ([19]; 75 mg/kg apilimod free base p.o. QD×5, 2 days off, QD×5, 31 days): 57%
- effect on body weight ([19]; all apilimod treatment arms, i.v. and p.o., 29 days): negligible effect on body weight
- reduction of tumor size ([19]; apilimod dimesylate 67.5 mg/kg (47 mg/kg free base) i.v. QD×5, 2 days off, QD×5, 29 days): 58%
- reduction of tumor growth ([19]; apilimod free base p.o. 150 mg/kg single dose (QD×5, 2 days off), 29 days): 64%
- reduction of tumor growth ([19]; apilimod free base p.o. 150 mg/kg split dose (75 mg/kg BID×5, 2 days off, BID×5), 29 days): 68%
- IC50 [20]: > 5000 nM
- IC50 [21]: > 2000 nM
